Experiments:
[1] = target: T1, Adrenergic receptor beta (Homo sapiens) (UniProt P08588+P07550+P13945); details: Cavia porcellus
Description: Compound was tested for beta-adrenoceptor activity in isolated guinea pig atria

[2] = target: T2, Adrenergic receptor alpha (Rattus norvegicus) (UniProt P15823+P23944+P43140+P22086+P19328+P22909); assay: Intrinsic activity against alpha-adrenoceptor in isolated rat vas deferens; type: tissue-based
[3] = target: T1, Adrenergic receptor beta (Homo sapiens); details: Cavia porcellus; remark: listed apart in the source
Description: Compound was tested for beta adrenergic receptor activity in isolated guinea pig tracheal strip

[4] = target: T2, Adrenergic receptor alpha (Rattus norvegicus); assay: Intrinsic activity against alpha-adrenoceptor in isolated rat tail artery
[5] = target: T2, Adrenergic receptor alpha (Rattus norvegicus); details: Artery
Description: Compound was tested for alpha-adrenoceptor activity in isolated rat tail artery

[6] = target: T2, Adrenergic receptor alpha (Rattus norvegicus); details: Vas deferens
Description: Compound was tested for alpha-adrenoceptor activity in isolated rat vas deferens

[7] = target: T1, Adrenergic receptor beta (Homo sapiens); details: Cavia porcellus; remark: listed apart in the source
Description: Compound was tested for beta adrenergic receptor activity in isolated guinea pig atria

[8] = target: T1, Adrenergic receptor beta (Homo sapiens); assay: Intrinsic activity beta adrenergic receptor in isolated guinea pig tracheal strip; details: Cavia porcellus; target entry is the homologue from another species

Compound	Intrinsic activity [2]	pD2 [3]	Intrinsic activity [4]	pD2 [7]	other results
NC[C@H](O)c1ccc(O)c(O)c1	1	6.04	1	–	pD2 [1]: 6.5; pD2 [5]: 6.16; pD2 [6]: 4.96
CC(C)N1CCCC(O)(c2ccc(O)c(O)c2)C1 (centres undefined)	–	8.26	–	8.14	–
CC(C)N1CCOC(c2ccc(O)c(O)c2)C1 (centres undefined)	–	6.34	–	5.74	–
CC(C)N[C@@H]1CCc2c(ccc(O)c2O)[C@H]1O	–	8.41	–	7.56	–
Oc1ccc(C2CNCCO2)cc1O (centres undefined)	0.91	–	0.92	–	–
Oc1ccc(C2(O)CCCNC2)cc1O (centres undefined)	0.95	–	1	–	Intrinsic activity [8]: 0.77
NC1CCc2c(ccc(O)c2O)[C@H]1O (some centres undefined)	–	7.49	–	6.74	–

— ChEMBL document CHEMBL1123455, “Conformational effects on the activity of drugs. 11. Stereostructural models for the direct activation of the alpha- and beta-adrenergic receptor” (J Med Chem, 1986)
